Test results as given in ChEMBL document CHEMBL1201862, “PubChem BioAssay data set” (2004).
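96-well plates; 48 h exposure; 5 concentrations. Endpoints by linear interpolation between flanking doses. Not reached: highest tested concentration assigned. GI50 = concentration required for 50% inhibition of growth.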 Active and inactive are the calls of the source. Cut-off read from the data, not from the text of the source: active = GI50 up to about 1.1 µM and inactive = higher.

Key:
Assay in all cases: DTP human tumour cell line panel, 48 h
A498 = test system: A498
OVCAR-8 = test system: OVCAR-8
OVCAR-5 = test system: OVCAR-5
K562 = test system: K562
UACC-257 = test system: UACC-257
OVCAR-3 = test system: OVCAR-3
SK-MEL-5 = test system: SK-MEL-5
CCRF-CEM = test system: CCRF-CEM
SK-MEL-28 = test system: SK-MEL-28
M14 = test system: M14
IGROV-1 = test system: IGROV-1
786-0 = test system: 786-0
NCI-H522 = test system: NCI-H522
HCT-116 = test system: HCT-116
NCI-H226 = test system: NCI-H226
SF-268 = test system: SF-268
HL-60 = test system: HL-60

Row | SMILES | GI50 (A498) | GI50 (OVCAR-8) | GI50 (OVCAR-5) | GI50 (K562) | GI50 (UACC-257) | GI50 (OVCAR-3) | GI50 (SK-MEL-5) | GI50 (CCRF-CEM) | GI50 (SK-MEL-28) | GI50 (M14) | GI50 (IGROV-1) | GI50 (786-0) | GI50 (NCI-H522) | GI50 (HCT-116) | GI50 (NCI-H226) | GI50 (SF-268) | GI50 (HL-60)
1 | CC1(C)CCCC2(C)C3C(O)CC2(C)C(O)C31 (stereo not given) | > 100 µM (inactive) | > 100 µM (inactive) | > 100 µM (inactive) | > 100 µM (inactive) | > 100 µM (inactive) | > 100 µM (inactive) | > 100 µM (inactive) | > 100 µM (inactive) | > 100 µM (inactive) | > 100 µM (inactive) | > 100 µM (inactive) | < 0.01 µM (active) | > 100 µM (inactive) | > 100 µM (inactive) | > 100 µM (inactive) | > 100 µM (inactive) | 
2 | COc1ccc(NC(=O)CC/C(CC(=O)C(C)(C)C)=N\NC(=O)C(N)=O)cc1 |  | > 100 µM (inactive) | > 100 µM (inactive) | 84.9 µM (inactive) | > 100 µM (inactive) | > 100 µM (inactive) |  | > 100 µM (inactive) | > 100 µM (inactive) | > 100 µM (inactive) | > 100 µM (inactive) | > 100 µM (inactive) |  | > 100 µM (inactive) | > 100 µM (inactive) | > 100 µM (inactive) | > 100 µM (inactive)
3 | N#C/C(=C/c1ccc2c(c1)OCO2)C(=O)c1ccccc1 | > 100 µM (inactive) | > 100 µM (inactive) | > 100 µM (inactive) | > 100 µM (inactive) | > 100 µM (inactive) | > 100 µM (inactive) | > 100 µM (inactive) | > 100 µM (inactive) | > 100 µM (inactive) | > 100 µM (inactive) | > 100 µM (inactive) | > 100 µM (inactive) | > 100 µM (inactive) | > 100 µM (inactive) |  | > 100 µM (inactive) | 
4 | Cc1ccc(S(=O)(=O)N/N=C(/CC(=O)c2c(C)[n+]([O-])c3ccccc3[n+]2[O-])C(=O)Nc2ccc(C)c(C)c2)cc1 | > 100 µM (inactive) |  | 88.7 µM (inactive) |  | 87.1 µM (inactive) | 16.5 µM (inactive) |  |  | > 100 µM (inactive) | > 100 µM (inactive) | 62.8 µM (inactive) | > 100 µM (inactive) | 70.1 µM (inactive) | 38.2 µM (inactive) | > 100 µM (inactive) | > 100 µM (inactive) | 
5 | O=C1c2ccccc2C2(O)N(c3ccccc3)C(=S)N(c3ccccc3)C12O (stereo not given) | > 100 µM (inactive) | > 100 µM (inactive) | > 100 µM (inactive) | > 100 µM (inactive) | > 100 µM (inactive) | > 100 µM (inactive) | > 100 µM (inactive) | > 100 µM (inactive) | > 100 µM (inactive) | > 100 µM (inactive) | > 100 µM (inactive) | > 100 µM (inactive) | > 100 µM (inactive) | > 100 µM (inactive) | > 100 µM (inactive) | > 100 µM (inactive) | 
6 | Cc1ccccc1/C=C/C(=O)c1ccccc1 | 16.4 µM (inactive) | 25.2 µM (inactive) | 16.3 µM (inactive) | 20.6 µM (inactive) | 22.5 µM (inactive) | 17.3 µM (inactive) | > 10 µM (inactive) | 29.6 µM (inactive) | 18.7 µM (inactive) | 16.1 µM (inactive) | 25.2 µM (inactive) | 16.3 µM (inactive) | 21.1 µM (inactive) | 15.4 µM (inactive) | 20.5 µM (inactive) | 15.9 µM (inactive) | 
7 | COc1ccc(-c2cc(=O)c3cc(C)c(C)c(C(=O)O)c3o2)cc1 | > 100 µM (inactive) | > 100 µM (inactive) |  | > 100 µM (inactive) | > 100 µM (inactive) | > 100 µM (inactive) |  | > 100 µM (inactive) | > 100 µM (inactive) |  | > 100 µM (inactive) | > 100 µM (inactive) |  | > 100 µM (inactive) |  |  | > 100 µM (inactive)
